Laboratory results: US20220323406A1, “METHODS AND COMPOSITIONS FOR DIFFERENTIATING STEM CELLS” (Massachusetts Institute of Technology, priority 2019, published 2022)

How the values were obtained:
ENR+CD organoids = test: Primary screen: ATP (CellTiter-Glo 3D, CTG) cell number/viability, 2.5-D 384-well ENR+CD organoids; conditions: primary screen; for Z.CTG: standard z score;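 as to all read-outs here: compounds given at plating and again on day 3 over a 6-day differentiation from ENR+CV stem-cell-enriched precursors, ATP measured on day 6, plate median as control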
[1] = tested on: ENR+CD organoids (ISC to Paneth cell differentiation); test: Primary screen: CCh-stimulated lysozyme secretion LYZ.S, 2.5-D 384-well ENR+CD organoid differentiation; format: cell-based, mouse; conditions: primary screen
Source text: (§1) High-throughput screening.

[2] = tested on: ENR+CD organoids (ISC to Paneth cell differentiation); test: Primary screen: basal (non-stimulated) lysozyme secretion LYZ.NS, 2.5-D 384-well ENR+CD organoid differentiation; format: cell-based, mouse; conditions: primary screen; for Z.LYZ.NS: standard z score
Source text: as §1

[3] = dose 0.08 uM, FC relative to plate median
[4] = dose 0.40 uM, FC relative to plate median
[5] = dose 2.00 uM, FC relative to plate median
[6] = dose 10.00 uM, FC relative to plate median

Compound | Z.CTG (standard z score) (ENR+CD organoids; dose 0.08 uM) | Z.CTG (standard z score) (ENR+CD organoids; dose 0.40 uM) | Z.CTG (standard z score) (ENR+CD organoids; dose 2.00 uM) | Z.CTG (standard z score) (ENR+CD organoids; dose 10.00 uM) | Z.LYZ.NS (standard z score) ([2]; dose 0.08 uM) | Z.LYZ.NS (standard z score) ([2]; dose 0.40 uM) | Z.LYZ.NS (standard z score) ([2]; dose 2.00 uM) | Z.LYZ.NS (standard z score) ([2]; dose 10.00 uM) | Dose.FC.CTG (ENR+CD organoids; dose 0.08 uM) [log2 fold change] | Dose.FC.CTG (ENR+CD organoids; dose 0.40 uM) [log2 fold change] | Dose.FC.CTG (ENR+CD organoids; dose 2.00 uM) [log2 fold change] | Dose.FC.CTG (ENR+CD organoids; dose 10.00 uM) [log2 fold change] | Dose.FC.LYZ.S ([1]; dose 0.08 uM) [log2 fold change] | Dose.FC.LYZ.S ([1]; dose 0.40 uM) [log2 fold change] | Dose.FC.LYZ.S ([1]; dose 2.00 uM) [log2 fold change] | Dose.FC.LYZ.S ([1]; dose 10.00 uM) [log2 fold change] | Dose.FC.LYZ.NS ([2]; dose 0.08 uM) [log2 fold change] | Dose.FC.LYZ.NS ([2]; dose 0.40 uM) [log2 fold change] | Dose.FC.LYZ.NS ([2]; dose 2.00 uM) [log2 fold change] | Dose.FC.LYZ.NS ([2]; dose 10.00 uM) [log2 fold change] | other results
Oc1ccc(Nc2nc(-c3ccc(Cl)cc3)cs2)cc1 [SKI II] | – | – | – | – | – | – | – | – | – | – | – | – | – | – | – | – | – | – | – | – | Dose.FC.CTG (ENR+CD organoids; [3]): 0.293 log2 fold change; Z.CTG (ENR+CD organoids; dose 0.08 uM): 0.699; Dose.FC.CTG (ENR+CD organoids; [4]): 0.222 log2 fold change; Z.CTG (ENR+CD organoids; dose 0.40 uM): 0.531; Dose.FC.CTG (ENR+CD organoids; [5]): 0.198 log2 fold change; Z.CTG (ENR+CD organoids; dose 2.00 uM): 0.473; Dose.FC.CTG (ENR+CD organoids; [6]): −0.336 log2 fold change; Z.CTG (ENR+CD organoids; dose 10.00 uM): −0.802; Dose.FC.LYZ.S [1, 3]: 0.090 log2 fold change; Dose.FC.LYZ.S [1, 4]: 0.123 log2 fold change; Dose.FC.LYZ.S [1, 5]: 0.061 log2 fold change; Dose.FC.LYZ.S [1, 6]: −0.191 log2 fold change; Dose.FC.LYZ.NS [2, 3]: 0.078 log2 fold change; Z.LYZ.NS ([2]; dose 0.08 uM): 0.683; Dose.FC.LYZ.NS [2, 4]: 0.219 log2 fold change; Z.LYZ.NS ([2]; dose 0.40 uM): 1.906; Dose.FC.LYZ.NS [2, 5]: 0.074 log2 fold change; Z.LYZ.NS ([2]; dose 2.00 uM): 0.647; Dose.FC.LYZ.NS [2, 6]: −0.156 log2 fold change; Z.LYZ.NS ([2]; dose 10.00 uM): −1.362
CN(C)CCc1c[nH]c2ccc(Cn3cncn3)cc12 [Rizatriptan Benzoate] | – | – | – | – | – | – | – | – | – | – | – | – | – | – | – | – | – | – | – | – | Dose.FC.CTG (ENR+CD organoids; [3]): 0.214 log2 fold change; Dose.FC.CTG (ENR+CD organoids; [4]): 0.109 log2 fold change; Dose.FC.CTG (ENR+CD organoids; [5]): 0.126 log2 fold change; Dose.FC.CTG (ENR+CD organoids; [6]): −0.054 log2 fold change; Dose.FC.LYZ.S [1, 3]: 0.179 log2 fold change; Dose.FC.LYZ.S [1, 4]: 0.019 log2 fold change; Dose.FC.LYZ.S [1, 5]: −0.009 log2 fold change; Dose.FC.LYZ.S [1, 6]: 0.105 log2 fold change; Dose.FC.LYZ.NS [2, 3]: 0.070 log2 fold change; Z.LYZ.NS ([2]; dose 0.08 uM): 0.613; Dose.FC.LYZ.NS [2, 4]: 0.148 log2 fold change; Z.LYZ.NS ([2]; dose 0.40 uM): 1.289; Dose.FC.LYZ.NS [2, 5]: 0.027 log2 fold change; Z.LYZ.NS ([2]; dose 2.00 uM): 0.238; Dose.FC.LYZ.NS [2, 6]: 0.000 log2 fold change; Z.LYZ.NS ([2]; dose 10.00 uM): −0.003
Ifenprodil Tartrate | 0.243 | 0.265 | −0.008 | −2.471 | 0.492 | −0.161 | 1.068 | −1.909 | – | – | – | – | – | – | – | – | – | – | – | – | Dose.FC.CTG (log2 fold change) (ENR+CD organoids; dose 0.08 uM): 0.102; Dose.FC.CTG (log2 fold change) (ENR+CD organoids; dose 0.40 uM): 0.111; Dose.FC.CTG (log2 fold change) (ENR+CD organoids; dose 2.00 uM): −0.003; Dose.FC.CTG (log2 fold change) (ENR+CD organoids; dose 10.00 uM): −1.034; Dose.FC.LYZ.S (log2 fold change) ([1]; dose 0.08 uM): 0.050; Dose.FC.LYZ.S (log2 fold change) ([1]; dose 0.40 uM): 0.017; Dose.FC.LYZ.S (log2 fold change) ([1]; dose 2.00 uM): −0.023; Dose.FC.LYZ.S (log2 fold change) ([1]; dose 10.00 uM): −0.301; Dose.FC.LYZ.NS (log2 fold change) ([2]; dose 0.08 uM): 0.056; Dose.FC.LYZ.NS (log2 fold change) ([2]; dose 0.40 uM): −0.019; Dose.FC.LYZ.NS (log2 fold change) ([2]; dose 2.00 uM): 0.123; Dose.FC.LYZ.NS (log2 fold change) ([2]; dose 10.00 uM): −0.219
CCNC(=O)c1noc(-c2cc(C(C)C)c(O)cc2O)c1-c1ccc(CN2CCOCC2)cc1 [AUY922 (NVP-AUY922)] | −2.830 | −3.208 | −2.715 | −3.032 | −1.251 | −1.343 | −1.200 | −1.330 | −1.185 | −1.343 | −1.137 | −1.270 | −0.209 | −0.184 | −0.216 | −0.214 | −0.144 | −0.154 | −0.138 | −0.153 | –
Nc1cccc(-c2cc3c(Oc4cccc(O)c4)ncnc3[nH]2)c1 [TWS119] | 0.784 | 0.796 | 0.169 | −2.866 | 0.820 | 0.327 | 0.304 | −2.027 | 0.328 | 0.333 | 0.071 | −1.200 | 0.207 | 0.142 | 0.044 | −0.283 | 0.094 | 0.038 | 0.035 | −0.233 | –
COc1ccc(-n2nc(C(N)=O)c3c2C(=O)N(c2ccc(N4CCCCC4=O)cc2)CC3)cc1 [Apixaban] | – | – | – | – | 0.035 | −0.260 | 0.253 | −0.712 | −0.089 | 0.111 | −0.060 | −0.077 | 0.081 | 0.029 | 0.051 | −0.096 | 0.004 | −0.030 | 0.029 | −0.082 | –
